Laboratory results taken from article PMC11653702, “Targeting the SPC25/RIOK1/MYH9 Axis to Overcome Tumor Stemness and Platinum Resistance in Epithelial Ovarian Cancer” (Advanced Science, 2024).

Experiments:
[1] = molecular target: casein kinase II (CKII); assay: Inhibition of endogenous CKII kinase activity; assay type: cell-based, human; conditions: OVCAR3 and OVCAR8 cells
Protocol: (§1) Western Blotting: Western blotting was performed using primary antibodies detailed in Table S5 (Supporting Information). Western blotting grayscale analyses were performed using ImageJ (version 2.0.0; NIH, Bethesda, MD, USA). β-Catenin expression was quantified by determining the gray level of each band using Image J and normalized using α-tubulin.

[2] = test system: MYH9 phosphorylation at Ser1943; assay: Western blotting, phosphorylation of MYH9 at Ser1943 under CX-4945, OVCAR3 and OVCAR8; assay type: cell-based, human; conditions: CX-4945 6 μM, OVCAR3 and OVCAR8 cells with SPC25 overexpression or silencing
Protocol: as §1
Figure S6. A) Exogenous IP assays performed to assess Ser/Thr phosphorylation status of MYH9-Myc in HEK293FT cells with or without SPC25-Flag expression. B) Quantification of nuclear or cellular fluorescence of reexpressed GFP-MYH9-WT with NLS2-2A and NLS2-3A mutants in MYH9-silenced OVCAR3 cells with or without SPC25 overexpression. C) qRT-PCR of MYH9 in OVCAR8 and SKOV3 cells with exogenous expression of MYH9 mutant variants. D) qRT-PCR of MYH9 in MYH9-silenced OVCAR3 and OVCAR8 cells with reexpression of MYH9-WT or MYH9-S1943A. E) qRT-PCR of CTNNB1 in MYH9-silenced OVCAR8 cells with reexpression of MYH9-WT or MYH9-S1943A under SPC25 silencing (left). TOP/FOP Flash analysis in MYH9-silenced OVCAR8 cells with reexpression of MYH9-WT or MYH9-S1943A under SPC25 silencing (right). F) Endogenous phosphorylation status of MYH9 at Ser1943 in OVCAR3 and OVCAR8 cells under escalating doses of CX-4945 examined through Western blotting. […]

[3] = test system: patients with EOC; design: method as in 2 sources, ref 59 = [59]; PMID 22204724; doi:10.1056/NEJMoa1104390; 59 R. A. Burger , M. F. Brady , M. A. Bookman , G. F. Fleming , B. J. Monk , H. Huang , R. S. Mannel , H. D. Homesley , J. Fowler , B. E. Greer , M. Boente , M. J. Birrer , S. X. Liang , G. G. Oncolog ||| ref 61, 62, 63 = [61]; PMID 25481791; doi:10.1016/S1470-2045(14)71135-0; 61 A. M. Oza , D. Cibula , A. O. Benzaquen , C. Poole , R. H. Mathijssen , G. S. Sonke , N. Colombo , J. Spacek , P. Vuylsteke , H. Hirte , S. Mahner , M. Plante , B. Schmalfeldt , H. Mackay , J. Rowb || [62]; PMID 34485111; doi:10.3389/fonc.2021.638295; 62 N. Ren , L. Zhang , J. Yu , S. Guan , X. Dai , L. Sun , M. Ying , Front. Oncol. 2021 , 11 , 638295 . 34485111 10.3389/fonc.2021.638295 PMC8414886 || [63]; PMID 27663600; doi:10.1158/1078-0432.CCR-16-1546; 63 J. M. Lee , C. J. Peer , M. Yu , L. Amable , N. Gordon , C. M. Annunziata , N. Houston , A. K. Goey , T. M. Sissung , B. Parker , L. Minasian , V. L. Chiou , R. F. Murphy , B. C. Widemann , W. D. F; conditions: cited from earlier work; for PFS or OS during chemotherapy: PARP inhibitors during chemotherapy; for maintenance treatment benefit for patient survival: PARP inhibitors, maintenance treatment of EOC
[4] = test system: OVCAR3 cells; assay: Tumor sphere formation, XAV939, SPC25-overexpressing OVCAR3; assay type: cell-based, human; conditions: for negative ratio / number of negative wells: XAV939 100uM, 24 wells
[5] = test system: COV644 cells; assay: Tumor sphere formation, XAV939, SPC25-overexpressing COV644; assay type: cell-based, human; conditions: for Log(negative ratio, 2) / negative ratio / number of negative wells: XAV939 100uM, 24 wells

O=C(O)c1ccc2c(c1)nc(Nc1cccc(Cl)c1)c1ccncc12 [CX-4945]
kinase activity of endogenous CKII [1]: completely inhibited | SPC25-mediated promotion of MYH9 phosphorylation at Ser1943 [2]: persisted

NC(=O)c1cccc2cn(-c3ccc([C@@H]4CCCNC4)cc3)nc12 [niraparib]
PFS or OS during chemotherapy [3]: marginal PFS or OS enhancements | maintenance treatment benefit for patient survival [3]: marked benefits

bevacizumab: biological agent combined with platinum-based regimens
PFS prolongation ([3]; added to platinum-based regimens, recurrent patients with EOC, compared with controls): 3–4 months

O=C(c1cc(Cc2n[nH]c(=O)c3ccccc23)ccc1F)N1CCN(C(=O)C2CC2)CC1 [olaparib]
PFS or OS during chemotherapy [3]: marginal PFS or OS enhancements | maintenance treatment benefit for patient survival [3]: marked benefits

Oc1nc(-c2ccc(C(F)(F)F)cc2)nc2c1CSCC2 [XAV939]
enhanced stemness attributable to SPC25 overexpression (tumor sphere formation) ([4]; SPC25-overexpressing OVCAR3): effectively mitigated the enhanced stemness | negative ratio ([4]; OVCAR3-SPC25, 50 cells): 1 | number of negative wells ([4]; OVCAR3-SPC25, 50 cells): 24 | negative ratio ([4]; OVCAR3-SPC25, 100 cells): 1 | number of negative wells ([4]; OVCAR3-SPC25, 100 cells): 24 | negative ratio ([4]; OVCAR3-SPC25, 200 cells): 0.9167 | number of negative wells ([4]; OVCAR3-SPC25, 200 cells): 22 | negative ratio ([4]; OVCAR3-SPC25, 400 cells): 0.875 | number of negative wells ([4]; OVCAR3-SPC25, 400 cells): 21 | negative ratio ([4]; OVCAR3-SPC25, 800 cells): 0.8333 | number of negative wells ([4]; OVCAR3-SPC25, 800 cells): 20 | negative ratio ([4]; OVCAR3-Vector, 50 cells): 1 | number of negative wells ([4]; OVCAR3-Vector, 50 cells): 24 | negative ratio ([4]; OVCAR3-Vector, 100 cells): 1 | number of negative wells ([4]; OVCAR3-Vector, 100 cells): 24 | negative ratio ([4]; OVCAR3-Vector, 200 cells): 0.9583 | number of negative wells ([4]; OVCAR3-Vector, 200 cells): 23 | negative ratio ([4]; OVCAR3-Vector, 400 cells): 0.9167 | number of negative wells ([4]; OVCAR3-Vector, 400 cells): 22 | negative ratio ([4]; OVCAR3-Vector, 800 cells): 0.8333 | number of negative wells ([4]; OVCAR3-Vector, 800 cells): 20 | enhanced stemness attributable to SPC25 overexpression (tumor sphere formation) ([5]; SPC25-overexpressing COV644): effectively mitigated the enhanced stemness | Log(negative ratio, 2) ([5]; COV644-SPC25, 50 cells): 0 | negative ratio ([5]; COV644-SPC25, 50 cells): 1 | number of negative wells ([5]; COV644-SPC25, 50 cells): 24 | Log(negative ratio, 2) ([5]; COV644-SPC25, 100 cells): 0 | negative ratio ([5]; COV644-SPC25, 100 cells): 1 | number of negative wells ([5]; COV644-SPC25, 100 cells): 24 | number of negative wells ([5]; COV644-SPC25, 200 cells): 23 | number of negative wells ([5]; COV644-SPC25, 400 cells): 23 | number of negative wells ([5]; COV644-SPC25, 800 cells): 21 | Log(negative ratio, 2) ([5]; COV644-Vector, 50 cells): 0 | negative ratio ([5]; COV644-Vector, 50 cells): 1 | number of negative wells ([5]; COV644-Vector, 50 cells): 24 | Log(negative ratio, 2) ([5]; COV644-Vector, 100 cells): 0 | negative ratio ([5]; COV644-Vector, 100 cells): 1 | number of negative wells ([5]; COV644-Vector, 100 cells): 24 | Log(negative ratio, 2) ([5]; COV644-Vector, 200 cells): 0 | negative ratio ([5]; COV644-Vector, 200 cells): 1 | number of negative wells ([5]; COV644-Vector, 200 cells): 24 | number of negative wells ([5]; COV644-Vector, 400 cells): 23 | number of negative wells ([5]; COV644-Vector, 800 cells): 22
